Measurements taken from patent publication US20090011410A1, “METHOD FOR TAILORING ADMINISTRATION OF DRUGS BY QUANTITATION OF MRNA” (priority 2004, published 2009).

Legend:
p21 mRNA = experiment: drug-induced p21 mRNA expression in whole blood of healthy adults; assay type: cell-based, human; conditions: for p21 mRNA expression: healthy leukocytes, 2 hours at 37° C. (FIG. 1); for kinetics of p21 induction / levels of p21 mRNA upon stimulation: 0-8 hours at 37° C., 20 μM BLM
Description: (§1) Blood was obtained from healthy adults and from two leukemic non-Hodgkin's malignant lymphoma patients. U937, KG-1, and Jurkat cells were obtained from American Type Culture Collection (ATCC, Manassas, Va.), and maintained in RPMI 1640 supplemented with 10% fetal calf serum. Of these, U937 cells are a human histiocytic lymphoma cell line, KG-1 cells are a human bone marrow myelogenous leukemia cell line, and Jurkat cells are a human T-cell lymphoblast-like, leukemia derived cell line. […] For human experiments, blood aliquots were stimulated with various anti-cancer drugs at 37° C. for 2 hours, then both p21 and BAX mRNA were measured. The anti-cancer drugs used in this study were clinical drugs, and the concentration of each drug was adjusted to typical blood levels 3-6 hours after intravenous administration.
(§2) The mRNA and cDNA were prepared from whole blood. In brief, home-made 96-well filterplates were placed over collection plates, and 150 μl 5 mM Tris, pH 7.4, was applied. Following centrifugation at 120×g for 1 min at 4° C., 50 μl of blood samples were applied to each well and immediately centrifuged at 120×g for 2 min at 4° C., followed by washing of each well with 300 μl PBS once with centrifugation at 2000×g for 5 min at 4° C. Then, 60 μl stock lysis buffer, containing for example 0.5% N-Lauroylsarcosine, 4×SSC, 10 mM Tris HCl, pH 7.4, 1 mM EDTA, 0.1% IGEPAL CA-630, and 1.791 M guanidine thiocyanate, supplemented with 1% 2-mercaptoethanol (Bio Rad, Hercules, Calif., USA), 0.5 mg/ml proteinase K (Pierce, Rockford, Ill., USA), 0.1 mg/ml salmon sperm DNA (5 Prime Eppendorf/Brinkmann, Westbury, N.Y., USA), 0.1 mg/ml E. coli tRNA (Sigma), a cocktail of 10 mM each of the specific reverse primers shown in Table 1, and standard RNA34 oligonucleotides, were applied to the filterplates, followed by incubation at 37° C. for 10 min. The filterplates were then placed over oligo(dT)-immobilized microplates (GenePlate, RNAture), and centrifuged at 2000×g for 5 min at 4° C. Following overnight storage at 4° C., the microplates were washed with 100 μl plain lysis buffer 3 times, followed by 150 μl of wash buffer (0.5 M NaCl, 10 mM Tris, pH 7.4, 1 mM EDTA) 3 times at 4° C. The cDNA was directly synthesized in each well by adding 30 μl buffer containing 1× RT-butter, 1.25 mM each of dNTP, 4 units rRNasin, and 80 units of MMLV reverse transcriptase (Promega) (without primers), and incubation at 37° C. for 2 hours. The specific primer-primed cDNA existed in solution, and oligo(dT)-primed cDNA stayed immobilized in the microplate. For TaqMan PCR (FIGS. 1, 3, 4), the resultant 4 μl cDNA solution was directly transferred to 384-well PCR plates, to which 5 μl of TaqMan universal master mix (ABI) and 1 μl oligonucleotide cocktail (15 μM each of forward and reverse primer, and 3-6 μM TaqMan probe) were applied, and PCR was conducted in PRISM 7900HT (ABI), with one cycle of 95° C. for 10 min followed by 45 cycles of 95° C. for 30 sec, 55° C. for 30 sec, and 60° C. for 1 min. For SYBR Green PCR (see FIG. 6), cDNA was diluted 3-4 fold in water, and 4 μl cDNA solution was directly transferred to 384-well PCR plates, to which 5 μl of a master mix (BioRad, Hercules, Calif.) and 1 μl of oligonucleotide cocktail (15 μM each of forward and reverse primer) were applied, and PCR was conducted in PRISM 7900HT (ABI), with one cycle of 95° C. for 10 min followed by 45 cycles of 95° C. for 30 sec and 60° C. for 1 min. Each gene was amplified in separate wells. The Ct was determined by analytical software (SDS, ABI).
In 8-well strip microtubes, 1.4 μl of 50× concentrations of drugs or controls (phosphate buffered saline (PBS) or DMSO) were added, and stored at −20° C. until use. […] Seventy μl of fresh heparinized whole blood was added into each well in triplicate, and incubated at 37° C. for 2-8 hours with the cap closed. For radiation treatment, blood was stimulated at designated doses using cesium-137.

BAX mRNA = experiment: drug-induced BAX mRNA expression in whole blood of healthy adults; assay type: cell-based, human; conditions: for Bax induction: 20 μM BLM or 100 μM VP-16, 4 hours at 37° C., ΔCt smaller than p21, not induced in 1 or 2 individuals (FIG. 6); for BAX responses compared with p21 and PUMA: 100 μM VP-16 or 20 μM BLM, 2 hours at 37° C., p<0.01 (FIG. 14)
Description: as §1
as §2, with “For TaqMan PCR (FIGS. 1, 3, 4), the resultant 4 μl cDNA solution was directly transferred to 384-well PCR plates, to which 5 μl of TaqMan universal master mix (ABI) and 1 μl oligonucleotide cocktail (15 μM each of forward and reverse primer, and 3-6 μM TaqMan probe) were applied, and PCR was conducted in PRISM 7900HT (ABI), with one cycle of 95° C. for 10 min followed by 45 cycles of 95° C. for 30 sec, 55° C. for 30 sec, and 60° C. for 1 min. For SYBR Green PCR (see FIG. 6), cDNA was diluted 3-4 fold in water, and 4 μl cDNA solution was directly transferred to 384-well PCR plates, to which 5 μl of a master mix (BioRad, Hercules, Calif.) and 1 μl of oligonucleotide cocktail (15 μM each of forward and reverse primer) were applied, and PCR was conducted in PRISM 7900HT (ABI), with one cycle of 95° C. for 10 min followed by 45 cycles of 95° C. for 30 sec and 60° C. for 1 min. Each gene was amplified in separate wells.” left out, “ABI). […]” for “ABI).”

[1] = heparinized whole blood, 100 μM VP-16 (FIG. 5B)

| Compound | p21 induction (p21 mRNA; 10 μM VP-16, 2 hours at 37° C. (FIG. 9A)) | p21 expression (p21 mRNA; 100 μM VP-16, 2 hours at 37° C. (FIG. 9A)) | p21 mRNA expression (p21 mRNA; 10 μM etoposide) | p21 mRNA expression (p21 mRNA; 100 μM etoposide) | kinetics of p21 induction (p21 mRNA; [1]) | levels of p21 mRNA upon stimulation (p21 mRNA; [1]) | peak of transient p21 induction (p21 mRNA; [1]) | Bax induction (BAX mRNA) | BAX responses compared with p21 and PUMA (BAX mRNA) | concentration at which significant induction of p21 was observed (p21 mRNA; 0-20 μM BLM, 4 hours at 37° C. (FIG. 7)) | p21 induction (p21 mRNA; BLM at concentrations as low as 0.2 μM, 2 hours at 37° C., all cases (FIG. 10A)) |
| --- | --- | --- | --- | --- | --- | --- | --- | --- | --- | --- | --- |
| COc1cc([C@@H]2c3cc4c(cc3[C@@H](O[C@@H]3O[C@@H]5CO[C@@H](C)O[C@H]5[C@H](O)[C@H]3O)[C@H]3COC(=O)[C@H]23)OCO4)cc(OC)c1O [VP-16, etoposide] | failed to induce p21 in many cases | majority of individuals exhibited increased p21 expression | no significant p21 mRNA expression | expressed significantly | transient induction | significantly increased | 2 to 4 h | induced | significantly less than those of p21 and PUMA |  |  |
| bleomycin [BLM] |  |  |  |  | increased continuously for 8 hours | significantly increased |  | induced | significantly less than those of p21 and PUMA | more than 0.1 VM | induced |
